Where two headings read alike, the source gives them in different places. Blank lines part the entries; values can stand above or below the molecule they belong to.
Key:
[1] = target: T1, A1 receptors (Rattus norvegicus, UniProt P25099); assay: inhibition of binding of [3H]-phenylisopropyladenosine in rat brain membranes (D); set-up: Rat Brain Membranes; from tissue; host or cells: rat brain (membranes)
T1 sequence (P25099 1-326): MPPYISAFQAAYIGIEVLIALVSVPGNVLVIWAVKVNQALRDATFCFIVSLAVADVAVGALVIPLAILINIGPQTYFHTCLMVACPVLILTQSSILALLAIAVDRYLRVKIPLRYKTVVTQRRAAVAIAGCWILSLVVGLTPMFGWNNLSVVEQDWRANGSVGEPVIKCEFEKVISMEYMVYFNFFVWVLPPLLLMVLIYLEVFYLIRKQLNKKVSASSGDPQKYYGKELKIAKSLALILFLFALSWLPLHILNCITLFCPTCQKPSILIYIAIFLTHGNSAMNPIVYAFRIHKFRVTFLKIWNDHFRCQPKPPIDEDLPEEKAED
Experimental: (§1) For activity at A1 receptors, compounds were tested as inhibitors of the binding of N^6 -[…]-[3H]-Phenylisopropyladenosine in rat brain membranes and for their ability to prevent R-PIA-induced inhibition of adenylate cyclase in rat fat cell membranes.
(D) Rat Brain Membranes

[2] = target: T2, A2 receptors (Rattus norvegicus, UniProt P30543); assay: antagonism of NECA-stimulated adenylate cyclase in rat PC12 membranes (B); assay type: biochemical
T2 construct: Rat PC12 Membranes; endogenous in cells; host or cells: PC12

[3] = system: A2 adenosine receptors; assay: antagonism of adenosine agonists: decrease in contractile tone of guinea pig taenia caecum (A2); conditions: for selectivity for A1 adenosine receptors (functional tissues): atrium (A1) vs taenia caecum (A2); for antagonism of the effects of adenosine agonists in relaxing the taenia caecum: modified Schild plots; for sensitization of the tissue (larger agonist response): taenia caecum, high concentrations of the compound
Experimental: Taenia from the guinea pig caecum were cut into lengths of 1.5-2 cm. The tissues were suspended in a 20 ml organ bath containing de Jalon's solution that was gassed with 95% O2 +5% CO2 and maintained at 31° C. […] The contractile response was measured isotonically. […] The ability of the compounds to antagonize the effects of agonists was analyzed using modified Schild plots.

[4] = target: T3, A1 adenosine receptors (Cavia porcellus, UniProt P47745); assay: antagonism of adenosine agonists: reduction in force of contraction of guinea pig atrium (A1); conditions: for basal force of contraction in the atria / competitive antagonism at adenosine receptors in the atria: guinea pig atria
T3 construct: The left atria from male guinea pigs were isolated; from tissue; host or cells: guinea pig left atrium
T3 sequence (P47745 1-326): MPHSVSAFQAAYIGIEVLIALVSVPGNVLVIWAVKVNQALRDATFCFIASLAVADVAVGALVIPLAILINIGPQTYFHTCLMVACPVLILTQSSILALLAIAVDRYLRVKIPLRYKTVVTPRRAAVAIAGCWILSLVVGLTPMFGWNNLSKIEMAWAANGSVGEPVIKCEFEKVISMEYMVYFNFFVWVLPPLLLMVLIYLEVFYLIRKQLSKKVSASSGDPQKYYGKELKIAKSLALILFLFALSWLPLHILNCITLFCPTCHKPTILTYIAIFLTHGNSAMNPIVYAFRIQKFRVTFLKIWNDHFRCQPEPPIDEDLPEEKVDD
Experimental: The left atria from male guinea pigs were isolated, suspended between two punctate electrodes, and placed in a 20 ml organ bath that contained Krebs-[…] solution that was continuously gassed with 95% O2 +5% CO2 and maintained at 31° C. The resting tension was one gram. The atria were stimulated electrically at 1 Hz, 1 msec duration pulses at supramaximal voltage. The force of contraction was recorded isometrically. The ability of the compounds to antagonize the effects of agonists was analyzed using modified Schild plots.

[5] = target: T4, A2 receptors (Homo sapiens, UniProt P29274); assay: antagonism of NECA-stimulated adenylate cyclase in human platelet membranes (A); assay type: biochemical; conditions: for Kb: (A) Human Platelet Membranes, A2 Effects
T4 construct: Human Platelet Membranes; from tissue; host or cells: human platelets (membranes)

[6] = target: T1, A1 receptors; assay: prevention of R-PIA-induced inhibition of adenylate cyclase in rat fat cell membranes (C); assay type: biochemical; set-up: from tissue
Experimental: as §1
(C) Rat Fat Cell Membranes

[7] = target: T1, A1 receptors; assay: in vivo test on heart rate / ECG of anesthetized rats
Experimental: (§2) Rats were anesthetized with urethan and blood pressure was monitored via a carotid cannula. Drug injections were made intravenously through a jugular cannula. Blood pressure, EGC, and heart rate were recorded on a Grass polygraph.

[8] = target: T5, A2 receptors (Bos taurus, UniProt E1BKU0); assay: [3H]-NECA binding, bovine caudate membranes (A2); conditions: Table 4, with 50 nM cyclopentyl-adenosine
T5 construct: bovine caudate was the source of membranes; from tissue; host or cells: bovine caudate nuclei (membranes)
Experimental: Further tests to discover the affinities of test compounds at A2 receptors were conducted.
To provide bovine caudate nuclei, bovine brains were obtained fresh from a local slaughterhouse. The caudate nuclei were dissected out and homogenized in Buffer A (50 mm Tris; 1 mm Na2-EDTA; 5 mm KCl; 1 mm MgCl2; 2 mm CaCl2; pH 7.4) using a Brinkman Polytron. The homogenate was centrifuged at 40,000×g for 20 minutes and washed once. The pellet was resuspended in Buffer A, incubated at 37° C. for 15 minutes, then centrifuged. The pellet was washed once more, resuspended to a protein concentration of 5-10 mg/ml in Buffer A and frozen at -70° C. until use.
(§3) Varying concentrations of test compounds were incubated with the appropriate radioligand and membrane source for 1 hr at room temperature.
(§4) Assays were terminated by filtration over Whatman GF/B filters that had been pre-soaked with 0.1% polyethyleneimine using a 24 port Brandell cell havester. The filters were washed three times with 3 ml of ice cold buffer and transfered to plastic scintillation vials to which 4 ml of Beckman Ready protein scintillation cocktail was added. The tubes were shaken and counted in a Beckman 3801 scintillation counter that converted cpm to dpm.
(§5) Data were analyzed by utilizing the Ligand, commercial computer program (Munson and Rodbard, 1980).

[9] = system: A2 receptors; assay: in vivo test on blood pressure of anesthetized rats; conditions: prior administration, anesthetized rat
Experimental: as §2

[10] = target: T1, A1 receptors; assay: [3H]-CHA binding, rat cortical membranes (A1), selectivity experiment of Table 4; set-up: Rat Brain Membranes; from tissue; host or cells: rat brain (membranes)
Experimental: as §3, §4, §5
(§6) Male Sprague Dawley rats were killed by decapitation and the brains removed. The cerebral cortices were homogenized in 50 mm Tris; 2mm MgCl2 (pH 7.4), and centrifuged at 40,000×g for 10 minutes. […] The homogenate was centrifuged, washed once, resuspended to a protein concentration of 5-10 mg/ml and frozen at -70° C. until use.

[11] = target: T6, rat cortical A1 receptors (Rattus norvegicus, UniProt P25099); assay: displacement of [3H]-CHA from rat cortical A1 receptors; assay type: binding; conditions: [3H]-CHA; rat cortical A1 receptors; read-out: Rat Cortical Binding Constant Ki
T6 construct: rat cortical membranes were the receptor source; from tissue; host or cells: rat cerebral cortex (male Sprague Dawley) membranes
T6 sequence (P25099 1-326): T1 sequence (P25099 1-326)
Experimental: as §3, §4, §5, §6

[12] = system: adenosine receptor; conditions: cited from earlier work
[13] = system: adenosine-induced cyclic Amp accumulation in a human fibroblast cell line; conditions: low concentrations; cited from earlier work
[14] = system: A2 receptors; conditions: vs N^6 -substituted adenosine analogs; cited from earlier work
[15] = (B) Rat PC12 Membranes, A2 Effects
[16] = guinea pig atrium, modified Schild plots
[17] = (C) Rat Fat Cell Membranes, A1 Effects, read-out: KB vs PIA INHIBITION (Adenylate Cyclase)

T4 sequence (P29274 whole entry): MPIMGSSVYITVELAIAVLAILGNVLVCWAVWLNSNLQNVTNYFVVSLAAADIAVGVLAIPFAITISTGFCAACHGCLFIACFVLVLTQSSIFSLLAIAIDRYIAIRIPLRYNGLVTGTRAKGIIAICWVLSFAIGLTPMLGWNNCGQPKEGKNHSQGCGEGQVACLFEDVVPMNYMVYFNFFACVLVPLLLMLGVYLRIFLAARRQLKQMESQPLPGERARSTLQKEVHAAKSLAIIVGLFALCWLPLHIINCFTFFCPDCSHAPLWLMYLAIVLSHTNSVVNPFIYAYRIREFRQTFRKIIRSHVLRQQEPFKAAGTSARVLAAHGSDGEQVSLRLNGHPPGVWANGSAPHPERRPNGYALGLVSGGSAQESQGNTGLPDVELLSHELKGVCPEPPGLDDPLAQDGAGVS
T2 sequence (P30543 whole entry): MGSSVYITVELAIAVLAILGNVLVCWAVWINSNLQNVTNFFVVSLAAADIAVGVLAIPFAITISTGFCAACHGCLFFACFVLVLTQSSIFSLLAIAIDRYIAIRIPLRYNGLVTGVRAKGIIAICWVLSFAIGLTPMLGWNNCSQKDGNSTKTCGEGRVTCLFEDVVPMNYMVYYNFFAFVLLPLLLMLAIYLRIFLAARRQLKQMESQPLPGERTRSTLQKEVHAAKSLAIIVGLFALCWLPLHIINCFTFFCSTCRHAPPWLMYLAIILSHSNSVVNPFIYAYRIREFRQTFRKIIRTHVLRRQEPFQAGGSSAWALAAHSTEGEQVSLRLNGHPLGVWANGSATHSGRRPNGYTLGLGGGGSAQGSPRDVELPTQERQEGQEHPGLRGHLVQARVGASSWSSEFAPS
T5 sequence (E1BKU0 1-401): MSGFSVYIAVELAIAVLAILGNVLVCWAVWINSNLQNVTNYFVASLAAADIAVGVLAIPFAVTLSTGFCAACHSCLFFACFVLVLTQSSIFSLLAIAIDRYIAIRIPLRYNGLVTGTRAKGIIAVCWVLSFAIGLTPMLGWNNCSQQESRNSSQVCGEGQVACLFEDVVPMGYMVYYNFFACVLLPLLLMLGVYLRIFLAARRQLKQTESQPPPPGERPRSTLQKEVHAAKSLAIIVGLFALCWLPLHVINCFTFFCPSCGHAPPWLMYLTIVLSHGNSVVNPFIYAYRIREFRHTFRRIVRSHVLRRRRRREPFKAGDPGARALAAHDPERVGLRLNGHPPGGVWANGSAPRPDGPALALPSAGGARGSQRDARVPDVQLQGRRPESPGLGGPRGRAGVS

Ki ([1]; (D) Rat Brain Membranes, A1 Effects, read-out: Ki vs [^3 H] PI (Binding)): 3.3 µM
Kb [2, 15]: 53 µM
selectivity for A1 adenosine receptors (functional tissues) [3]: selective for A1 adenosine receptors
affinity constant pKB [4, 16]: 5.4 ± 0.14
Kb [5]: 11 µM
Kb [6, 17]: 7.6 µM
SMILES: CCC(CC)Nc1ncnc2c1ncn2C [N^6-3-Pentyl-9-MA, N^6-3-Pentyl-9-Methyladenine]
antagonism of the effects of adenosine agonists in relaxing the taenia caecum [3]: did not competitively antagonize the effects of adenosine agonists in relaxing the taenia caecum
sensitization of the tissue (larger agonist response) [3]: some sensitization of the tissue
basal force of contraction in the atria [4]: increases in basal force of contraction in the atria
competitive antagonism at adenosine receptors in the atria [4]: competitive antagonists at adenosine receptors in the atria

SMILES: Cn1cnc2c(N[C@H]3C[C@H]4CC[C@@H]3C4)ncnc21 (relative stereo) [compound 0861, N^6-(endo-2-Norbornyl)-9-Methyladenine]
cardio-selectivity in vivo [7]: cardio-selective adenosine receptor antagonist in vivo
effects of subsequently administered adenosine on all parameters measured (blood pressure, heart rate, P-R interval) ([7]; intravenous): attenuated the effects of subsequently administered adenosine on all parameters measured
heart block caused by high doses of adenosine ([7]; intravenous): substantially reduced
effects of NECA on the heart ([7]; prior administration): attenuated the effects of NECA on the heart
Ki [8]: 6.96 µM
selectivity for A1 adenosine receptors (functional tissues) [3]: selective for A1 adenosine receptors
antagonism of the effects of adenosine agonists in relaxing the taenia caecum [3]: did not competitively antagonize the effects of adenosine agonists in relaxing the taenia caecum
sensitization of the tissue (larger agonist response) [3]: some sensitization of the tissue
potency ranking as antagonist ([4]; among the Table 2 examples): the most potent antagonist
competitive antagonism at adenosine receptors in the atria [4]: competitive antagonists at adenosine receptors in the atria
NECA-induced decrease in blood pressure [9]: minimally affecting the NECA-induced decrease in blood pressure
selectivity for A1 receptors over A2 receptors ([10]; A1 vs A2): 170 fold
Ki ([10]; Table 4, [3H]-CHA, rat cortical membranes per text): 0.041 µM
Ki [11]: 0.116 µM

SMILES: Cn1c(=O)c2[nH]c(-c3ccccc3)nc2n(C)c1=O [8-phenyltheophylline (8-PT), 8-phenyltheophylline, reference compound]
antagonism of the effects of adenosine agonists in relaxing the taenia caecum [3]: did antagonize the effects of agonists at low concentrations
sensitization of the tissue (larger agonist response) [3]: Sensitization is also observed
selectivity among adenosine receptors [12]: non-selective adenosine receptor antagonist

potency relative to 9-methyladenine at A1 receptors ([1]; A1 receptors, vs 9-methyladenine): at least 100 fold
Kb [2, 15]: 25 µM
selectivity for A1 adenosine receptors (functional tissues) [3]: selective for A1 adenosine receptors
affinity constant pKB [4, 16]: 6.17 ± 0.11
Kb [5]: 4.9 µM
potency relative to 9-methyladenine at A2 receptors ([5]; human platelet assay, vs 9-methyladenine): 5 fold
Ki [11]: 0.375 µM
Kb [6, 17]: 1.3 µM
SMILES: Cn1cnc2c(NC3CCCC3)ncnc21 [compound 0840, N^6 -Cyclopentyl-9-Methyl Adenine]
antagonism of the effects of adenosine agonists in relaxing the taenia caecum [3]: did not competitively antagonize the effects of adenosine agonists in relaxing the taenia caecum
sensitization of the tissue (larger agonist response) [3]: some sensitization of the tissue
competitive antagonism at adenosine receptors in the atria [4]: competitive antagonists at adenosine receptors in the atria

Kb ([4]; guinea pig atrium, modified Schild plots, read-out: affinity constant pKB (converted)): 4.37 µM
SMILES: CCC(Cc1cccs1)Nc1ncnc2c1ncn2C (centres unmarked) [N^6-1-(2-Thienyl)-2-butyl)-9-MA, N^6-1-(2-Thienyl)-2-butyl-9-MA]
basal force of contraction in the atria [4]: increases in basal force of contraction in the atria
competitive antagonism at adenosine receptors in the atria [4]: competitive antagonists at adenosine receptors in the atria

SMILES: Nc1ncnc2nc[nH]c12 [Adenine, reference compound]
Ki [1]: > 100 µM
Kb [2]: 570 µM
antagonism of adenosine-induced cyclic Amp accumulation [13]: specific competitive antagonism
Kb [6]: > 1000 µM

SMILES: Nc1ncnc2c1ncn2[C@@H]1O[C@H](CO)[C@@H](O)[C@H]1O [Adenosine, reference compound]
heart block at high doses ([7]; high doses): causes heart block

SMILES: CCNC(=O)[C@H]1O[C@@H](n2cnc3c(N)ncnc32)[C@H](O)[C@@H]1O [NECA, 5'-N-ethylcarboxamido-adenosine]
potency at A2 receptors [14]: more potent than N^6 -substituted analogs
